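Five concentrations, 48 hours, 96-well plates. The concentration for full growth arrest is given as TGI.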
Experiments:
Assay in all cases: inhibition of tumour cell growth, NCI panel, 48 h
SK-MEL-28 melanoma = tested on: SK-MEL-28 melanoma
UACC-62 melanoma = tested on: UACC-62 melanoma
K-562 leukemia = tested on: K-562 leukemia
KM20L2 colon = tested on: KM20L2 colon
LXFL 529 NSCLC = tested on: LXFL 529 NSCLC
U251 CNS = tested on: U251 CNS
OVCAR-4 ovarian = tested on: OVCAR-4 ovarian
A549 NSCLC = tested on: A549 NSCLC
NCI-H460 lung = tested on: NCI-H460 lung
NCI-H226 lung = tested on: NCI-H226 lung
SF-295 CNS = tested on: SF-295 CNS
NCI-H23 lung = tested on: NCI-H23 lung
LOX IMVI melanoma = tested on: LOX IMVI melanoma
DLD-1 colon = tested on: DLD-1 colon
RXF-631 renal = tested on: RXF-631 renal
HCC-2998 colon = tested on: HCC-2998 colon
SR leukemia = tested on: SR leukemia
HOP-18 NSCLC = tested on: HOP-18 NSCLC
SNB-19 CNS = tested on: SNB-19 CNS
M19-MEL melanoma = tested on: M19-MEL melanoma
OVCAR-5 ovarian = tested on: OVCAR-5 ovarian
A498 renal = tested on: A498 renal
HT29 colon = tested on: HT29 colon
KM12 colon = tested on: KM12 colon
CAKI-1 renal = tested on: CAKI-1 renal
SF-539 CNS = tested on: SF-539 CNS
IGROV1 ovarian = tested on: IGROV1 ovarian
RXF 393 renal = tested on: RXF 393 renal
SK-MEL-5 melanoma = tested on: SK-MEL-5 melanoma
OVCAR-8 ovarian = tested on: OVCAR-8 ovarian
SNB-75 CNS = tested on: SNB-75 CNS
MOLT-4 leukemia = tested on: MOLT-4 leukemia
SK-MEL-2 melanoma = tested on: SK-MEL-2 melanoma
EKVX NSCLC = tested on: EKVX NSCLC
XF 498 CNS = tested on: XF 498 CNS
TK-10 renal = tested on: TK-10 renal
SN12C renal = tested on: SN12C renal
NCI-H522 lung = tested on: NCI-H522 lung
DMS 114 small cell lung = tested on: DMS 114 small cell lung
OVCAR-3 ovarian = tested on: OVCAR-3 ovarian
HOP-92 NSCLC = tested on: HOP-92 NSCLC
SK-OV-3 ovarian = tested on: SK-OV-3 ovarian
HCT-15 colon = tested on: HCT-15 colon
RPMI-8226 leukemia = tested on: RPMI-8226 leukemia
SF-268 CNS = tested on: SF-268 CNS
ACHN renal = tested on: ACHN renal
MALME-3M melanoma = tested on: MALME-3M melanoma
UO-31 renal = tested on: UO-31 renal
COLO 205 colon = tested on: COLO 205 colon
UACC-257 melanoma = tested on: UACC-257 melanoma
CCRF-CEM leukemia = tested on: CCRF-CEM leukemia
SNB-78 CNS = tested on: SNB-78 CNS
HOP-62 NSCLC = tested on: HOP-62 NSCLC
DMS 273 small cell lung = tested on: DMS 273 small cell lung
M14 melanoma = tested on: M14 melanoma
HCT-116 colon = tested on: HCT-116 colon
HL-60(TB) leukemia = tested on: HL-60(TB) leukemia
786-0 renal = tested on: 786-0 renal

Compound: CC(C)(C)NNC(=O)/C(=C/c1ccc(Oc2ccc(Cl)c(Cl)c2)cc1)NC(=O)c1ccccc1
- TGI (SK-MEL-28 melanoma): > 100 µM
- TGI (UACC-62 melanoma): > 100 µM
- TGI (K-562 leukemia): > 100 µM
- TGI (KM20L2 colon): > 100 µM
- TGI (LXFL 529 NSCLC): > 100 µM
- TGI (U251 CNS): > 100 µM
- TGI (OVCAR-4 ovarian): > 100 µM
- TGI (A549 NSCLC): > 100 µM
- TGI (NCI-H460 lung): > 100 µM
- TGI (NCI-H226 lung): > 100 µM
- TGI (SF-295 CNS): > 100 µM
- TGI (NCI-H23 lung): > 100 µM
- TGI (LOX IMVI melanoma): 40.1 µM
- TGI (DLD-1 colon): > 100 µM
- TGI (RXF-631 renal): > 100 µM
- TGI (HCC-2998 colon): > 100 µM
- TGI (SR leukemia): 35.9 µM
- TGI (HOP-18 NSCLC): > 100 µM
- TGI (SNB-19 CNS): > 100 µM
- TGI (M19-MEL melanoma): > 100 µM
- TGI (OVCAR-5 ovarian): > 100 µM
- TGI (A498 renal): > 100 µM
- TGI (HT29 colon): > 100 µM
- TGI (KM12 colon): > 100 µM
- TGI (CAKI-1 renal): > 100 µM
- TGI (SF-539 CNS): > 100 µM
- TGI (IGROV1 ovarian): > 100 µM
- TGI (RXF 393 renal): > 100 µM
- TGI (SK-MEL-5 melanoma): > 100 µM
- TGI (OVCAR-8 ovarian): > 100 µM
- TGI (SNB-75 CNS): > 100 µM
- TGI (MOLT-4 leukemia): > 100 µM
- TGI (SK-MEL-2 melanoma): > 100 µM
- TGI (EKVX NSCLC): > 100 µM
- TGI (XF 498 CNS): > 100 µM
- TGI (TK-10 renal): > 100 µM
- TGI (SN12C renal): > 100 µM
- TGI (NCI-H522 lung): > 100 µM
- TGI (DMS 114 small cell lung): 35.9 µM
- TGI (OVCAR-3 ovarian): > 100 µM
- TGI (HOP-92 NSCLC): > 100 µM
- TGI (SK-OV-3 ovarian): > 100 µM
- TGI (HCT-15 colon): > 100 µM
- TGI (RPMI-8226 leukemia): 45.1 µM
- TGI (SF-268 CNS): > 100 µM
- TGI (ACHN renal): > 100 µM
- TGI (MALME-3M melanoma): > 100 µM
- TGI (UO-31 renal): > 100 µM
- TGI (COLO 205 colon): 36.8 µM
- TGI (UACC-257 melanoma): > 100 µM
- TGI (CCRF-CEM leukemia): > 100 µM
- TGI (SNB-78 CNS): > 100 µM
- TGI (HOP-62 NSCLC): > 100 µM
- TGI (DMS 273 small cell lung): 58.3 µM
- TGI (M14 melanoma): > 100 µM
- TGI (HCT-116 colon): > 100 µM
- TGI (HL-60(TB) leukemia): > 100 µM
- TGI (786-0 renal): > 100 µM
